Measurements published in publication PMC9890698 (BMC Biology, 2023).
Several values for one entry are separate records, joined by “and”; a condition that tells them apart may be missing. Equal values may be shown once.

Key:
Human P2Y12-R [1] = target: T1, Human P2Y12-R (Homo sapiens, UniProt Q9H244); experiment: β-arrestin 2 recruitment BRET1 assay (β-arrestin 2-RLuc / P2Y12-R-Venus) in HEK293T cells; assay type: cell-based; settings: 10 μM, 5 min, result in words
T1 construct: expressed in transfected cells; host or cells: HEK293T/17
Description: We assessed β-arrestin 2 recruitment to the receptor using BRET^1 assay. The assay measures the interaction between β-arrestin 2 fused to the Renilla reniformis luciferase (RLuc) energy donor and the receptor fused to fluorescent Venus energy acceptor (Fig. 3a). The recruitment of cytosolic β-arrestin 2 to the receptor at the plasma membrane in the presence of an agonist will promote a significant increase of the BRET signal compared to the basal state, reflecting the close proximity between the β-arrestin 2 energy donor and the receptor energy acceptor [22]. […]
G protein activation and β-arrestin 2 recruitment were performed as previously described. […] BRET signal between RLuc8 and GFP2 was measured after addition of the luciferase substrate coelenterazine 400a (5 μM). […] BRET signal was recorded after incubation with coelenterazine h (5 μM) for 8 min. For kinetics studies, BRET signal between RLuc and Venus was recorded at 20-s intervals at basal state for the 2 first minutes and then for 5 min after ligand injection. For saturation curves (BRET^1), the expression level of Venus- or RLuc-tagged protein was determined by direct measurement of total fluorescence and luminescence respectively. Total fluorescence was first measured with an excitation filter at 485 nm and an emission filter at 520 nm. […] BRET^2 and BRET^1 readings were collected using a modified Infinite F500 (Tecan Group Ltd). […]

[2] = system: Gαq protein in HEK293T cells (pcDNA3.1); experiment: Gαq protein activation BRET2 assay in control HEK293T cells without receptor (pcDNA3.1 / 0 μg); assay type: cell-based, Human; settings: pcDNA3.1, ADP 10 μM, 1 min, individual experiments
Description: As previously described, using a BRET^2 (bioluminescence resonance energy transfer)-based assay, we directly monitored the basal Gαq protein activation by measuring the interaction between Gαq and Gγ2 subunits of the Gαqβ1γ2 heterotrimer complex. Indeed, this assay is based on the non-radiative transfer between the Renilla reniformis luciferase (RLuc8) energy donor fused to the Gαq protein subunit and the fluorescent GFP2 energy acceptor fused to Gγ2 protein subunit (Fig. 1a). […] By contrast, ligand-independent constitutive receptor activation or agonist-induced receptor activation will promote Gαq/Gγ2 subunit dissociation, thereby leading to a decrease of the basal BRET signal (Fig. 1a). […] To preclude any P2Y1-R activation by a passive release of ADP by HEK293T cells, we performed similar experiments in the presence of high concentration of apyrase (0.2U/mL) to degrade any trace of ADP in the medium (Additional File 2: Fig. S2a). Under these conditions, P2Y1-R expression still induces a marked and significant decrease of the basal BRET signal compared to control cells (pcDNA3.1), thereby supporting a P2Y1-R-dependent constitutive activation of Gαq protein. […] Of note, because P2Y1-R and AT1-R were respectively Myc- and HA-tagged and were thus detected using different primary antibodies, their expression at the cell surface cannot be compared between each other’s.
G protein activation and β-arrestin 2 recruitment were performed as previously described. […] BRET signal between RLuc8 and GFP2 was measured after addition of the luciferase substrate coelenterazine 400a (5 μM). […] BRET signal was recorded after incubation with coelenterazine h (5 μM) for 8 min. For kinetics studies, BRET signal between RLuc and Venus was recorded at 20-s intervals at basal state for the 2 first minutes and then for 5 min after ligand injection. For saturation curves (BRET^1), the expression level of Venus- or RLuc-tagged protein was determined by direct measurement of total fluorescence and luminescence respectively. Total fluorescence was first measured with an excitation filter at 485 nm and an emission filter at 520 nm. Then, the same sample was incubated for 8 minutes with 5 μM coelenterazine h and the total luminescence was measured. BRET^2 and BRET^1 readings were collected using a modified Infinite F500 (Tecan Group Ltd). The BRET^2 signal was calculated by the ratio of emission of GFP2 (510–540 nm) to RLuc8 (370–450 nm) and the BRET^1 signal by the ratio of emission of Venus (520–570 nm) to RLuc (370–480 nm). Sometimes, results are expressed as the Net BRET computed by deducting the BRET background signal (obtained in the presence of the energy donor alone) from the BRET signal (acquired from cells expressing both the energy donor and acceptor).

HEK293T cells (pcDNA3.1) = experiment: IP1 accumulation assay (HTRF) in control HEK293T cells (pcDNA3.1); assay type: cell-based, Human; settings: pcDNA3.1, MRS2179 10 μM, 2 h
Description: Since Gαq protein activation is known to induce PLC activation leading to IP3 and subsequent cytosolic calcium release, we analyzed the constitutive Gαq-dependent P2Y1-R signaling by quantifying intracellular inositol monophosphate (IP1) using a monoclonal antibody-based competitive ELISA. IP1 is a downstream metabolite of IP3 that accumulates in cells following Gαq protein-coupled receptor activation, making it an ideal readout for Gαq protein-dependent signaling pathways.
Quantification of intracellular IP1 was performed using the HTRF (Homogeneous Time Resolved Fluorescence) IP1 competitive immunoassay (IP-One Tb kit. Cisbio. France) according to the manufacturer’s instructions. Briefly, 20,000 HEK293T/17 cells or 3.10^6 platelets were distributed in a 384-well white microplate (Greiner) and incubated with the indicated molecules for 30 min or 2 h at 37 °C in the presence of 50 mM of LiCl to prevent IP1 degradation. After addition of d2-labeled IP1 (acceptor) and anti-IP1-Cryptate (donor) for 1 h, the specific FRET signals were calculated by the fluorescence ratio of the acceptor and donor emission signal (665/620 nm) collected using a modified Infinite F500 (Tecan Group Ltd). Conversion of the HTRF ratio of each sample into IP1 concentrations was performed on the basis of a standard curve to determine the linear dynamic range of the assay.

P2Y1-R = system: P2Y1-R; set-up: method as in PMID 29724785; settings: Alzheimer's disease mouse model, result in words; cited from earlier work
Human P2Y12-R [3] = target: T1, Human P2Y12-R; experiment: IP1 accumulation assay (HTRF) in HEK293T cells expressing P2Y12-R; assay type: cell-based; settings: MRS2179 10 μM, 2 h

T1 sequence (Q9H244 whole entry): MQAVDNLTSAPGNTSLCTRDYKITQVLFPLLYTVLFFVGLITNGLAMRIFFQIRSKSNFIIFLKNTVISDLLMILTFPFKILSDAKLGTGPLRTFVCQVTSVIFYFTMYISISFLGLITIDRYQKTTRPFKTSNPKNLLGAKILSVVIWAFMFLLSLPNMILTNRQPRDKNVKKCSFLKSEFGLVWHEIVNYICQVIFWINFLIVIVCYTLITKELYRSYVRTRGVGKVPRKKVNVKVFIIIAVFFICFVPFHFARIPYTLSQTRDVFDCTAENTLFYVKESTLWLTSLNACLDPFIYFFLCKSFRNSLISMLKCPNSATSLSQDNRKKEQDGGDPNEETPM

Row | SMILES | Effect on β-arrestin 2 recruitment (Human P2Y12-R [1]) | ADP-modulated BRET [2] | IP1 concentration (HEK293T cells (pcDNA3.1)) | Effect on network homeostasis, spatial learning and memory (P2Y1-R) | IP1 concentration (Human P2Y12-R [3])
1 | Nc1ncnc2c1ncn2[C@@H]1O[C@H](COP(=O)(O)OP(=O)(O)O)[C@@H](O)[C@H]1O [ADP, adenosine diphosphate] | did not trigger β-arrestin 2 recruitment | -0.02779 and 0.00353 and 0.02201 and 0.01275 and 0.006152 and -0.007154 | – | – | –
2 | CNc1ncnc2c1ncn2[C@H]1C[C@H](OP(=O)(O)O)[C@@H](COP(=O)(O)O)O1 [MRS2179] | – | – | 88.9223 nM and 110.299 nM and 105.967 nM and 93.0408 nM and 138.708 nM | restored network homeostasis and protected from the decline of spatial learning and memory | 90.2229 nM and 91.7585 nM and 129.706 nM and 87.0301 nM and 114.326 nM
